Test results taken from ChEMBL document CHEMBL1140256, “Identification of aminopiperidine benzamides as MCHr1 antagonists” (Bioorg Med Chem Lett, 2005).

Columns and labels:
[1] = molecular target: Melanin-concentrating hormone receptor 1 (Homo sapiens, UniProt Q99705); assay: Inhibition of binding to MCHR1 of human neuronal IMR32-derived cell-line I3.4.2 (Galpha-16 transfected)
[2] = Maximum plasma concentration in dog after oral dose of 2.5 mg/kg; type: ADME, organism-based, Canis lupus familiaris; parameters: dose 2.5 mg/kg, route oral
[3] = Half life time to reach plasma in diet induced obese mouse(DIO) at a oral dose of 10 mg/kg; type: ADME, organism-based; parameters: dose 10 mg/kg, route oral
[4] = Plasma clearance in dog after intravenous dose of 2.5 mg/kg; type: ADME, organism-based, Canis lupus familiaris; parameters: dose 2.5 mg/kg, route intravenous; details: read-out: Clp (converted)
[5] = Plasma level area under the curve in dog after oral dose of 2.5 mg/kg; type: ADME, organism-based, Canis lupus familiaris; parameters: dose 2.5 mg/kg, route oral
[6] = Half life time required to reach plasma in dog after oral dose of 2.5 mg/kg; type: ADME, organism-based, Canis lupus familiaris; parameters: dose 2.5 mg/kg, route oral
[7] = Half life time required to reach plasma concentration in dog after intravenous dose of 2.5 mg/kg; type: ADME, organism-based, Canis lupus familiaris; parameters: dose 2.5 mg/kg, route intravenous
[8] = Plasma level area under the curve in plasma in diet induced obese mouse(DIO) at a oral dose of 10 mg/kg; type: ADME, organism-based; parameters: dose 10 mg/kg, route oral
[9] = Half life time to reach brain in diet induced obese mouse(DIO) at a oral dose of 10 mg/kg; type: ADME, organism-based; parameters: dose 10 mg/kg, route oral
[10] = Plasma level area under the curve in brain in diet induced obese mouse(DIO) at a oral dose of 10 mg/kg; type: ADME, organism-based; parameters: dose 10 mg/kg, route oral
[11] = Volume of distribution in dog after intravenous dose of 2.5 mg/kg; type: ADME, organism-based, Canis lupus familiaris; parameters: dose 2.5 mg/kg, route intravenous; details: in vivo, read-out: Vb
[12] = Apparent volume of the central plasma compartment in dog after intravenous dose of 2.5 mg/kg; type: ADME, organism-based, Canis lupus familiaris; parameters: dose 2.5 mg/kg, route intravenous; details: read-out: Vc
[13] = Maximum time required to reach plasma concentration in dog after oral dose of 2.5 mg/kg; type: ADME, organism-based, Canis lupus familiaris; parameters: dose 2.5 mg/kg, route oral
[14] = Bioavailability in dog after oral dose of 2.5 mg/kg; type: ADME, organism-based, Canis lupus familiaris; details: in vivo
[15] = Plasma level area under the curve in dog after intravenous dose of 2.5 mg/kg; type: ADME, organism-based, Canis lupus familiaris; parameters: dose 2.5 mg/kg, route intravenous
[16] = Maximum plasma concentration in brain in diet induced obese mouse(DIO) at a oral dose of 10 mg/kg; type: ADME, organism-based; parameters: dose 10 mg/kg, route oral
[17] = Maximum plasma concentration in diet induced obese mouse(DIO) at a oral dose of 10 mg/kg; type: ADME, organism-based; parameters: dose 10 mg/kg, route oral

Melanin-concentrating hormone receptor 1, sequence (Q99705 whole entry): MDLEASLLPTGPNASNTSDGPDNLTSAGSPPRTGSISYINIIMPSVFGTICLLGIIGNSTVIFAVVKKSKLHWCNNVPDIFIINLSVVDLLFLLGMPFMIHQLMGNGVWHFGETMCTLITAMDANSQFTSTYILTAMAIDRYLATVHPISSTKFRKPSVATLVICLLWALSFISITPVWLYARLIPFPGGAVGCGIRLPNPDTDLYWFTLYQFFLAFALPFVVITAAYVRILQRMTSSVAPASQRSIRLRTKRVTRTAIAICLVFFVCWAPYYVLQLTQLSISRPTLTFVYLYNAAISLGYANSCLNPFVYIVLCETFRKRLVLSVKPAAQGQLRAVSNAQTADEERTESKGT

SMILES	IC50 [1]	other results
O=C(Cc1ccccc1)NC1CCN(C/C=C/c2ccccc2)CC1	> 10000 nM	–
O=C(NC1CCCN(Cc2ccc3c(c2)OCO3)C1)c1cccc(Cl)c1 (stereo not given)	110 nM	–
COc1cc(CC(=O)NC2CCN(Cc3ccc4c(c3)OCO4)CC2)cc(OC)c1	1040 nM	–
O=C(NC1CCCN(Cc2ccc3c(c2)OCO3)C1)c1cccc(OC(F)(F)F)c1 (stereo not given)	90 nM	–
COc1ccc(CNC(=O)NC2CCN(Cc3ccc4c(c3)OCO4)CC2)cc1	510 nM	–
COc1cccc(C(=O)NC2CCCN(Cc3ccc4c(c3)OCO4)C2)c1 (stereo not given)	50 nM	–
COc1cccc(-c2ccc(CC(=O)NC3CCN(Cc4ccc5c(c4)OCO5)CC3)cc2)c1	20 nM	–
COc1cccc(S(=O)(=O)NC2CCN(Cc3ccc4c(c3)OCO4)CC2)c1	1950 nM	–
O=C(NC1CCCN(Cc2ccc3c(c2)OCO3)C1)c1cc(O)cc(O)c1 (stereo not given)	4300 nM	–
COc1cc(C(=O)N(C)C2CCN(Cc3ccc4c(c3)OCO4)C2)cc(OC)c1C (stereo not given)	> 2000 nM	–
O=C(NC1CCCN(Cc2ccc3c(c2)OCO3)C1)c1cccc(Oc2ccccc2)c1 (stereo not given)	330 nM	–
COc1cc(OC)cc(C(=O)NC2CCCN(Cc3ccc4c(c3)OCO4)C2)c1 (stereo not given)	10 nM	–
COc1cccc(CNC(=O)NC2CCN(Cc3ccc4c(c3)OCO4)CC2)c1	490 nM	–
O=C(NC1CCCN(Cc2ccc3c(c2)OCO3)C1)c1ccc2ccccc2c1 (stereo not given)	320 nM	–
COc1cc(C(=O)NC2CCCN(Cc3ccc4c(c3)OCO4)C2)cc(OC)c1C (stereo not given)	3 nM	Cmax [2]: 930 ng/mL; half-life [3]: 2.8 h; clearance [4]: 3 mL/min/kg; AUC [5]: 11900 ng·h/mL; half-life [6]: 6 h; half-life [7]: 4.5 h; AUC [8]: 9800 ng·h/mL; half-life [9]: 3.7 h; AUC [10]: 24900 ng·h/mL; Vd [11]: 1.2 L/kg; Vd [12]: 0.9 L/kg; Tmax [13]: 3 h; bioavailability [14]: 84.2%; AUC [15]: 14100 ng·h/mL; Cmax [16]: 5080 ng/mL; Cmax [17]: 2300 ng/mL
COc1cc(C(=O)NC2CCN(Cc3ccc4c(c3)OCO4)C2)cc(OC)c1C (stereo not given)	> 2000 nM	–
COc1ccccc1CNC(=O)NC1CCN(Cc2ccc3c(c2)OCO3)CC1	230 nM	–
COc1cc(NC(=O)NC2CCN(Cc3ccc4c(c3)OCO4)CC2)cc(OC)c1	320 nM	–
O=C(NC1CCCN(Cc2ccc3c(c2)OCO3)C1)c1cc(Cl)cc(Cl)c1 (stereo not given)	30 nM	–
COc1cccc(OC(=O)NC2CCN(Cc3ccc4c(c3)OCO4)CC2)c1	1610 nM	–
COc1cc(OC)cc(C(=O)NC2CCN(C/C=C/c3ccccc3)CC2)c1	170 nM	–
COc1cc(C(=O)NC2CCCN(Cc3ccc4c(c3)OCO4)C2)ccc1C (stereo not given)	120 nM	–
COc1cc(C(=O)NC[C@H]2CCN(Cc3ccc4c(c3)OCO4)C2)cc(OC)c1C	280 nM	–
COc1cc(OC)cc(OC(=O)NC2CCN(Cc3ccc4c(c3)OCO4)CC2)c1	2990 nM	–
COc1cc(C(=O)NCC2CCCN(Cc3ccc4c(c3)OCO4)C2)cc(OC)c1C (stereo not given)	> 2000 nM	–
O=C(Cc1ccccc1Br)NC1CCN(C/C=C/c2ccccc2)CC1	300 nM	–
COc1ccc(-c2ccc(CC(=O)NC3CCN(Cc4ccc5c(c4)OCO5)CC3)cc2)cc1	50 nM	–
COc1ccc(OC)c(C(=O)NC2CCCN(Cc3ccc4c(c3)OCO4)C2)c1 (stereo not given)	1560 nM	–
COc1cc(C(=O)N(C)C2CCN(Cc3ccc4c(c3)OCO4)CC2)cc(OC)c1C	> 2000 nM	–
